From PubChem BioAssay AID2615 (Southern Research Specialized Biocontainment Screening …, 2010) come the findings set out here.

In the experiment the test system is BSC cells SV40 infection, CPE inhibition. As to the kind of experiment: SV40 cytopathic effect inhibition and cytotoxicity, confirmation, SV40 T antigen inhibitor project, BSC cells (AID 2615). The following applies: measured here: cytotoxicity in BSC cells. On the technique in general: Protection from cytopathic effect is a common read-out in antiviral testing.

In turn, `ClC(Cl)(c1nnnn1-c1ccccc1)c1nnnn1-c1ccccc1` displayed a TC50 of 34 µM.
